{"source": "patent US8809358B2", "about": "“Use of IκB-kinase inhibitors in pain therapy” (Sanofi-Aventis Deutschland GmbH, priority 2002, dated 2014)", "key": {"[1]": {"test_system": "Kaolin/carrageenan-induced knee joint inflammation", "experiment": "Kaolin/carrageenan-induced knee joint inflammation in the rat: reaction of spinal neurons during pressure stimulation of the knee", "type": "in vivo", "text": "• Zymosan-induced paw inflammation in the rat; • Parameter: paw withdrawal time or paw withdrawal threshold during thermal or mechanical stimulation of the hind paw. 2nd Model: • Kaolin/carrageenan-induced knee joint inflammation in the rat; • Parameter: reaction of spinal neurons during pressure stimulation of the knee. Model 1\nExperimental implementation: In rats which were under sodium thiopental anesthesia, the spinal canal was opened and spinal medullary neurons which processed the “pain impulses” from the knee-joint were identified. Following identification, a long-term recording, in which the activity of the nerve cell was recorded before and during the development of an acute inflammation in the knee-joint, was carried out. For this, the responses to non-noxious and noxious stimulation at the knee-joint were measured in a control period before inducing the inflammation and for several hours after inducing the inflammation.\nThe acute inflammation was induced by the intraarticular injection of a suspension (about 150 μl) of kaolin and carrageenan. In controlled experiments, only the vehicle was applied to the spinal medullary surface in order to represent the development of the hyperexcitability under control conditions. As a rule, this development of hyperexcitability took place within 2 to 4 hours and was expressed in a marked increase in the responses to non-noxious and noxious stimulation of the knee-joint (Tab. 3). […] The responses of the cell to non-noxious and noxious stimulation were then subsequently monitored as in the control experiments."}, "IκB-kinase": {"target": "T1, IκB-kinase (Homo sapiens, UniProt O14920+O15111)", "T1 construct": "endogenous in cells; host or cells: HeLa S3 cell extract S100; ammonium sulfate cut and Superose-6 gel filtration (670 kDa fractions)", "T1 sequence (O14920 whole entry)": "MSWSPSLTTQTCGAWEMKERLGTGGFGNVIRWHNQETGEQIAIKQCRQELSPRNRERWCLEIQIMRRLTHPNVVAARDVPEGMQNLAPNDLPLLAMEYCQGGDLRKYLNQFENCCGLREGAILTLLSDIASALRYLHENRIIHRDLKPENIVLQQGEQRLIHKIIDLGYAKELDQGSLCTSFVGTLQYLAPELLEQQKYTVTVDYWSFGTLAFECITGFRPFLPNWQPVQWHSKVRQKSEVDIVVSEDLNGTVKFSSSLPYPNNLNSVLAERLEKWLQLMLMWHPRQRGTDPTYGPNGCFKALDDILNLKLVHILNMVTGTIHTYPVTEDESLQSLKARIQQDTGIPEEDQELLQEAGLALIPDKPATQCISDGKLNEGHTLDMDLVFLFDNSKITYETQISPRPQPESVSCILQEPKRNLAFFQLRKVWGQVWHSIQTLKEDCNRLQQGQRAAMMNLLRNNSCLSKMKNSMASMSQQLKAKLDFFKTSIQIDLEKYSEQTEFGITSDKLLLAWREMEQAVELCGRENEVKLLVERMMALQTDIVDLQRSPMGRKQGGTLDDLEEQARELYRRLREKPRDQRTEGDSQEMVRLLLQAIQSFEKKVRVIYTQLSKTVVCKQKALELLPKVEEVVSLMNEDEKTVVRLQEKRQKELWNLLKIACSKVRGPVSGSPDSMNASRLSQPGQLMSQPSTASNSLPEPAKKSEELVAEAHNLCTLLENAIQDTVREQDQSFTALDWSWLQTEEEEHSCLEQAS", "T1 sequence (O15111 whole entry)": "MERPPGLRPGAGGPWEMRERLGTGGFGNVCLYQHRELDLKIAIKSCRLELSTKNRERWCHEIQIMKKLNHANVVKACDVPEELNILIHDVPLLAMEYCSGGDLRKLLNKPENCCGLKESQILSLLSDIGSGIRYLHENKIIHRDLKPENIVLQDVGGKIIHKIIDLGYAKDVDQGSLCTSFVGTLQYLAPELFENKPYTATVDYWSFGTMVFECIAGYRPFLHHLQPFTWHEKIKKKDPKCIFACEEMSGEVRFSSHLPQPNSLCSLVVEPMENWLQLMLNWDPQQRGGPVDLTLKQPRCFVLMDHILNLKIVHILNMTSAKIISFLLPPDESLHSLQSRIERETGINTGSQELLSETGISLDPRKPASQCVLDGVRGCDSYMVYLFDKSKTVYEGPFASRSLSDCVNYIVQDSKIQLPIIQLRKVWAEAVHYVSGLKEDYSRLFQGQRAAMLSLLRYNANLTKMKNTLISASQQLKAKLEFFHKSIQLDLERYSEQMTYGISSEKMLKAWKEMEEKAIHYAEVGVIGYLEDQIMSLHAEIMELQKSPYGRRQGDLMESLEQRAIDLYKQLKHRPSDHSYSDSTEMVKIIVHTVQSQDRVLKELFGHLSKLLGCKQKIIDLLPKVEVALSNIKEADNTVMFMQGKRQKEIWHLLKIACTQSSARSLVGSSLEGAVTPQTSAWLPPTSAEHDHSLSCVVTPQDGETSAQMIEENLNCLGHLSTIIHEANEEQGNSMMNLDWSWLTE", "T1 sequence (Q9Y6K9 whole entry partner)": "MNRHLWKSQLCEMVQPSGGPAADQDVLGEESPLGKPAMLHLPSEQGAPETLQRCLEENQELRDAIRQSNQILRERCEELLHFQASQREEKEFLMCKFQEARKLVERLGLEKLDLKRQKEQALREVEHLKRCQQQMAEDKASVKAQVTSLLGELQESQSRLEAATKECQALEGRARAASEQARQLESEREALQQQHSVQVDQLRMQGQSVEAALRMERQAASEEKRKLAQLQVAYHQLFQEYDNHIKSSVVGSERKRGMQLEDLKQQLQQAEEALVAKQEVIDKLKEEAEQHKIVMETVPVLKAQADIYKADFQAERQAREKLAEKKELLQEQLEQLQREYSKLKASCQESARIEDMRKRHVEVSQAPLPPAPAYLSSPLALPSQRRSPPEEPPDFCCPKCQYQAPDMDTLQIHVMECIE", "experiment": "IκB-Kinase ELISA", "type": "biochemical", "details": "kinase complex from HeLa S3 cell extract, activated with MEKK1Δ"}, "[2]": {"test_system": "Zymosan-induced paw inflammation", "experiment": "Zymosan-induced paw inflammation in the mouse: paw withdrawal time during thermal stimulation of the hind paw", "type": "in vivo", "details": "thermal hyperalgesia AUC, seven days; 200 mg/kg twice daily", "experimental": "• Zymosan-induced paw inflammation in the mouse; • Parameter: paw withdrawal time during thermal stimulation of the hind paw. Experimental implementation: In short-term anesthesia using isoflurane, 25 μl of a suspension containing 50 mg of zymosan/ml were injected into the right hind paw of the experimental animal. The development of a hyperalgesia was then determined quantitatively as follows: Determining the Paw Withdrawal Time During Thermal Stimulation (Hargreave's Test; See Above). The experimental animal was placed in a transparent plastic chamber having a glass floor. As soon as the experimental animal was no longer moving, following the reconnaissance phase (about 5 min), an infrared light source was positioned directly below the hind paw to be stimulated and switched on. The lamp emitted focused infrared light of increasing intensity such that the skin temperature of the hind paw increased almost linearly. As soon as the animal withdrew the paw, the lamp switched itself off. The temperature of the paw at the time it is withdrawn has just become unpleasant for the animal; this is referred to as the thermal pain threshold. Shortly before the zymosan injection, and for from 7 to 14 days after the injection, the thermal pain threshold was determined once daily on the right hind paw and left hind paw. Subsequently, the integral of the area which was formed from the curves for the paw withdrawal times of the inflamed paw and the noninflamed paw (AUC, area between the curves, see tables 5 and 6) was determined as a measure of the hyperalgesia. The larger this value is, the more pronounced is the hyperalgesia, and the smaller the value is in animals which are being given the substance, the greater is the success of the therapy. […] A very high dose of paracetamol was likewise administered twice daily to another group of animals which was taken through the experiment in parallel. […] The scheme for zymosan injection and dosing was identical to that in the previously described study. The only difference was that this additional study ran for 14 days."}, "[3]": {"test_system": "Zymosan-induced paw inflammation", "experiment": "Zymosan-induced paw inflammation in the mouse: spontaneous running performance in a running wheel", "type": "in vivo, C57/B6 mice", "experimental": "4th Model: • Zymosan-induced paw inflammation in the mouse; • Parameter: spontaneous running performance in a running wheel. In the cage in which it is kept, the experimental animal has access to a running wheel, the revolutions of which are recorded electronically. During the night hours, the C57/B6 mice use the running wheel voluntarily and, after a one-week phase of acclimatization, cover on average 4 100 meters/night. After zymosan has been injected, the distance run each night is reduced. This reduction in running performance is a valid parameter for a restriction in function which is due to inflammation pain. Experimental implementation: After an acclimatization phase of one week, the distance run/24 hours was measured in order to determine the base line. 25 μl of a suspension containing 50 mg of zymosan/ml were then injected into the right hind paw of the experimental animal during short-term anesthesia using isoflurane. The distance run/24 hours was then determined during the following seven days. In the analysis, the area under the curve for the values for the distance run was determined (AUC, tab. 7): the lower the AUC, the lower was the running performance during the week following injection of the zymosan. […] The substance was administered for the first time on day 1 after injection of the zymosan."}}}
{"smiles": "CNc1nccc(-c2nc3cc(C(=O)N[C@@H](CN(c4ccccc4)c4ccccc4)C(N)=O)ccc3[nH]2)n1", "note": "[Compound 22, N—((S)-1-carbamoyl-2-diphenylaminoethyl)-2-(2-methylaminopyrimidin-4-yl)-1H-benzimidazole-5-carboxamide]", "values": [{"measurement": "Neuronal responses before and during knee-joint inflammation (imp/15 s)", "setting": "[1]; Experiment 1, Non-noxious stimulation at the knee-joint, 30-60 min after K/C injection", "value": "−34.1", "unit": "imp/15 s"}, {"measurement": "Neuronal responses before and during knee-joint inflammation (imp/15 s)", "setting": "[1]; Experiment 1, Non-noxious stimulation at the knee-joint, 60-120 min after K/C injection", "value": "−37.2", "unit": "imp/15 s"}, {"measurement": "Neuronal responses before and during knee-joint inflammation (imp/15 s)", "setting": "[1]; Experiment 1, Non-noxious stimulation at the knee-joint, 120-180 min after K/C injection", "value": "−32.1", "unit": "imp/15 s"}, {"measurement": "Neuronal responses before and during knee-joint inflammation (imp/15 s)", "setting": "[1]; Experiment 1, Non-noxious stimulation at the knee-joint, Baseline", "value": 0, "unit": "imp/15 s"}, {"measurement": "Neuronal responses before and during knee-joint inflammation (imp/15 s)", "setting": "[1]; Experiment 1, Noxious stimulation at the knee-joint, 30-60 min after K/C injection", "value": "−109.1", "unit": "imp/15 s"}, {"measurement": "Neuronal responses before and during knee-joint inflammation (imp/15 s)", "setting": "[1]; Experiment 1, Noxious stimulation at the knee-joint, 60-120 min after K/C injection", "value": "−101.1", "unit": "imp/15 s"}, {"measurement": "Neuronal responses before and during knee-joint inflammation (imp/15 s)", "setting": "[1]; Experiment 1, Noxious stimulation at the knee-joint, 120-180 min after K/C injection", "value": "−37.8", "unit": "imp/15 s"}, {"measurement": "Neuronal responses before and during knee-joint inflammation (imp/15 s)", "setting": "[1]; Experiment 1, Noxious stimulation at the knee-joint, Baseline", "value": 0, "unit": "imp/15 s"}, {"measurement": "Neuronal responses before and during knee-joint inflammation (imp/15 s)", "setting": "[1]; Experiment 2, Non-noxious stimulation at the knee-joint, 30-60 min after K/C injection", "value": "−30.6", "unit": "imp/15 s"}, {"measurement": "Neuronal responses before and during knee-joint inflammation (imp/15 s)", "setting": "[1]; Experiment 2, Non-noxious stimulation at the knee-joint, 120-180 min after K/C injection", "value": 50.3, "unit": "imp/15 s"}, {"measurement": "Neuronal responses before and during knee-joint inflammation (imp/15 s)", "setting": "[1]; Experiment 2, Non-noxious stimulation at the knee-joint, 180-240 min after K/C injection", "value": 68.7, "unit": "imp/15 s"}, {"measurement": "Neuronal responses before and during knee-joint inflammation (imp/15 s)", "setting": "[1]; Experiment 2, Non-noxious stimulation at the knee-joint, Baseline", "value": 0, "unit": "imp/15 s"}, {"measurement": "Neuronal responses before and during knee-joint inflammation (imp/15 s)", "setting": "[1]; Experiment 2, Noxious stimulation at the knee-joint, 30-60 min after K/C injection", "value": "−9.2", "unit": "imp/15 s"}, {"measurement": "Neuronal responses before and during knee-joint inflammation (imp/15 s)", "setting": "[1]; Experiment 2, Noxious stimulation at the knee-joint, 120-180 min after K/C injection", "value": 60, "unit": "imp/15 s"}, {"measurement": "Neuronal responses before and during knee-joint inflammation (imp/15 s)", "setting": "[1]; Experiment 2, Noxious stimulation at the knee-joint, 180-240 min after K/C injection", "value": 96.7, "unit": "imp/15 s"}, {"measurement": "Neuronal responses before and during knee-joint inflammation (imp/15 s)", "setting": "[1]; Experiment 2, Noxious stimulation at the knee-joint, Baseline", "value": 0, "unit": "imp/15 s"}, {"measurement": "effect in model 2", "setting": "[1]; rat", "value": "good effect"}, {"measurement": "IC50", "setting": "IκB-kinase", "value": 45, "unit": "nM"}]}
{"smiles": "CC(=O)Nc1ccc(O)cc1", "note": "[Paracetamol, reference compound]", "values": [{"measurement": "Statistical difference as compared with the vehicle", "setting": "[2]", "value": "yes"}, {"measurement": "distance run as compared with the vehicle group", "setting": "[3]; mouse, 7 days, extremely high dose", "value": "no improvement"}, {"measurement": "Statistical difference as compared with the vehicle", "setting": "[3]; running wheel AUC, seven days, 200 mg/kg twice daily", "value": "no"}]}
